Data reported in ChEMBL document CHEMBL1129655, “A comparative molecular field analysis study of N-benzylpiperidines as acetylcholinesterase inhibitors” (J Med Chem, 1996).
pIC50: −log10 of the molar value.

Biological target: T1, Acetylcholinesterase (Mus musculus, UniProt P21836)
T1 sequence (P21836 whole entry): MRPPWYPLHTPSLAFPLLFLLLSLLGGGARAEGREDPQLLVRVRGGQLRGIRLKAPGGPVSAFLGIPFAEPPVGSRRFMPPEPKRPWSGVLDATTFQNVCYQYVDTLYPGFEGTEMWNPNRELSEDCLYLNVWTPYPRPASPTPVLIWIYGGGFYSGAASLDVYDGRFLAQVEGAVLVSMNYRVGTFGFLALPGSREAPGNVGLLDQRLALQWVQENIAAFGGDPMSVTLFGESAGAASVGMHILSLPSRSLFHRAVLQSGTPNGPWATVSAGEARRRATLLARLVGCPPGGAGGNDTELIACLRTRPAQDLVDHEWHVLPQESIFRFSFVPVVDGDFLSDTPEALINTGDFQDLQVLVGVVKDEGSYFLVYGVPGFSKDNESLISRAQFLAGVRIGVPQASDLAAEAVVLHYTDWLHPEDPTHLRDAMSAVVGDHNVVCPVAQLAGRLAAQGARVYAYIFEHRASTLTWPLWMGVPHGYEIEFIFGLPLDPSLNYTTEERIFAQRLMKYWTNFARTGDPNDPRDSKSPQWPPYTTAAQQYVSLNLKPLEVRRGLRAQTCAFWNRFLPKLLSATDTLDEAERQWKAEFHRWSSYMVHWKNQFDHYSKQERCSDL
Description: Inhibition against Acetylcholinesterase (AChE)

Compound: O=C(NCCC1CCN(CCc2ccccc2)CC1)c1ccccc1
- pIC50: 4.89
